From patent US20050107289A1, “Anti-microbial peptides and compositions” (priority 2001, published 2005) come the findings set out here.

Non-standard residues stand in square brackets, D forms with d. Residues, ends and D or L forms follow the SMILES beside them.

One assay concerns E. coli JM109 (DE3). Kind of assay: Time-killing curve, E. coli. The assay is classed as cell-based, Escherichia coli. Conditions: FIG. 8b; at MIC concentrations. As to the method: (§1) The speed at which several of the cyclic peptides of the invention kill E. coli JM 109 (DE3), Enterococcus faecium SP 180 and S. aureus (MRSA) (ATCC No. 33591 and 33592) was further tested at room temperature and/or at 37° C. A lower temperature tends to enrich the bacterial cultures for mature bacteria because the bacteria are not growing quickly. […] The presence or absence of immature bacteria in the culture may influence the rate at which the bacteria are killed, because immature bacteria tend to be more susceptible to many forms of antibiotics.
In FIG. 8b, the log of the number of E. coli colony forming units (cfu) per ml of culture is plotted versus time treated with cyclo[KRKWLWLW] (closed triangles), cyclo[KQRWLWLW] (closed circles), cyclo[KHLWLW] (closed squares), and cyclo[KKWLW] (open squares) at MIC concentrations. […] Cyclic peptide cyclo[KHKLWLW] kills effectively all E. coli within about 90 minutes. Cyclic peptides cyclo[KRKWLWLW] and cyclo[KKWLW] kill effectively all of the E. coli within about 130 minutes. […] Nonetheless, these cyclic peptides kill both types of bacteria very quickly.

Assay [1] has as its system S. aureus (MRSA) (ATCC No. 33591). Kind of assay: Time-killing curve, S. aureus MRSA ATCC 33591. The assay is classed as cell-based, Staphylococcus aureus. Conditions: FIG. 8a; at MIC concentrations. The protocol: as §1
To generate the data shown in FIG. 8a, the log of the number of colony forming units (cfu) per ml of culture was determined as a function of time after treatment of S. aureus (MRSA) (ATCC No. 33591) with cyclo[KHLWLW] (closed circles), cyclo[KRKWLWLW] (closed triangles), and cyclo[KQRWLWLW] (open squares) at MIC concentrations. […] The reduction in cfu count was greater than 3 log units. Cyclic peptide cyclo[KHLWLW] killed effectively all S. aureus (MRSA) within about 60 minutes.

On to `CC(C)C[C@H]1NC(=O)[C@H](Cc2c[nH]c3ccccc23)NC(=O)[C@@H](CCCNC(=N)N)NC(=O)[C@H](CCC(N)=O)NC(=O)[C@@H](CCCCN)NC(=O)[C@H](Cc2c[nH]c3ccccc23)NC(=O)[C@@H](CC(C)C)NC(=O)[C@H](Cc2c[nH]c3ccccc23)NC1=O` [SEQ ID NO:8, cyclo-(D-Lys-Gln-D-Arg-Trp-D-Leu-Trp-D-Leu-Trp)] (cyclo([dK]Q[dR]W[dL]W[dL]W)), for which the “time to kill effectively all E. coli” value in the assay on E. coli JM109 (DE3) is given as “within about thirty minutes”. The “time to kill effectively all S. aureus (MRSA)” value in assay [1] is on record as “within about five minutes”.
